Each structure is given as a SMILES string.

In one data set the test system is mice tibial fracture. Put plainly: Mice tibial fracture model (guarding, weight bearing, micro-CT, three point bending). The data set is classed as in vivo. To be noted: three point bending test, two weeks following fracture. The protocol:
The effects of NMP alone, NMP combined with mepivacaine and mepivacaine alone, on post-fracture mobilization, postoperative pain and bone healing were assessed in vivo using a standardized mice tibial fracture model (St-Arnaud, The Journal of steroid biochemistry and molecular biology 121, 254-256 (2010)). Thirty-two mice were randomly assigned into four groups (n=8, each); saline, mepivacaine, NMP and NMP+mepivacaine. Thirty minutes prior to surgical intervention, each mouse was injected with Carprofen (20 mg/kg; SC).
The animal was then anesthetized with isoflurane (3-5% at the induction time and 2-2.5% during the maintenance period). […] A longitudinal skin incision was made in order to expose the right patellar tendon. […]
Post-operative Animals' pain perception and locomotion were evaluated, at different time point; […], 3 days, one week and two weeks post fracture, by assessing mice guarding (Yasuda et al., Journal of pain research 6, 161 (2013)) and weight bearing per each leg, respectively. […] Guarding behavior was assessed as following; each mouse was placed individually in a clear plastic box on an elevated stainless steel mesh. […]
Weight bearing test was performed as following; an incapacitance meter (IITC.inc, CA, US) was used for determination of hind paw weight distribution. […] The weight exerted by each hind limb was measured and averaged over a period of 5 seconds. […]

A short description of data set [1]: In vitro drug release of mepivacaine (dialysis tube, PBS, 37° C., UV-Vis). The data set is classed as physicochemical. The protocol:
For the in vitro drug release, mepivacaine hydrochloride was dissolved in 1 mL of gel previously prepared to reach different mepivacaine concentration. The pH of the resulting thixotropic colloidal suspension before the addition of mepivacaine was 7.95, while after the addition of the drug changed to 7.1. The gel+mepivacaine was placed in a Pur-L-Lyzer™ dialysis tube with a molecular weight cut-off of 12000 Da, while the control group is represented by the mepivacaine dissolved in PBS (2% w/v) and placed in a dialysis tubes with the same molecular weight cut-off. The tubes were incubated in 30 mL of phosphate buffer saline solution (PBS) at 37° C., and the solution was changed at different time points comprised between 0 and 168 hours. In order to calculate the amount of drug released, the extracted solutions were analyzed with UV-Vis spectroscopy following the absorption of mepivacaine at 263 nm. All experiments were done in triplicates.

As to `Cc1cccc(C)c1NC(=O)C1CCCCN1C` (stereo not drawn) [mepivacaine], the “force to fracture, fractured versus non-fractured tibia” value in the data set on mice tibial fracture is given as “significantly different”. In data set [1] (after 8 hours, PBS, 37° C.), the “total release of drug” value is recorded as 90±5%. Moreover, the “stability of mepivacaine in contact with the gel (UV-Vis spectra)” value in data set [1] (after 24 hours from the beginning of the release experiment) is “molecular integrity of the drug”.

These data come from patent publication US11629055B2, “Magnesium phosphate hydrogels” (INViCARE INC., priority 2015, dated 2023).
